Measured values reported in ChEMBL document CHEMBL5370666, “Covalent Peptide LSD1 Inhibitor Specifically Recognizes Cys360 in the Enzyme-Active Region” (J Med Chem, 2023).
Active and inactive are the calls of the source. The rule behind the calls is not given here. *1 amine or outer side, *2 acyl side, *3 side chain or, on linkers, in order; H or OH if unused. Where a SMILES comes first, the peptide text is derived from it. Bridges are numbered along the chain shown (N, C = ends). [ ]: non-standard residue; d: D form. The star is where a group is joined. Met(S-mXyl) = C[S+](CC[C@H](N[*:1])C(=O)[*:2])Cc1cccc(C[*:3])c1; Biotin = O=C1N[C@H]2[C@H](CS[C@H]2CCCCC(=O)*)N1

What was measured:
[1] = molecular target: Lysine-specific histone demethylase 1A (Homo sapiens) (UniProt O60341); test: Covalent binding affinity to full-length human LSD1 transfected in HEK293T cell lysate at 40 uM incubated overnight by biotin-pull down assay; type: subcellular
A549 [2] = test: Induction of cell cycle arrest in human A549 cells assessed as cell accumulation at G1 phase at 50 uM incubated for 24 hrs by RNase/PI staining based flow cytometry (reference value: 49.19 %); type: functional
[3] = molecular target: Apoptosis regulator Bcl-2 (Homo sapiens) (UniProt P10415); test: Binding affinity to BCL2 (unknown origin) at 50 uM incubated for 12 hrs by SDS-PAGE analysis
T47D [4] = test: Cytotoxicity against human T47D cells assessed as cell viability at 100 uM incubated for 24 hrs by MTT assay relative to control; details: read-out: Activity
A549 [5] = test: Induction of cell cycle arrest in human A549 cells assessed as cell accumulation at S phase at 50 uM incubated for 24 hrs by RNase/PI staining based flow cytometry (reference value: 39.60 %); type: functional
A549 [6] = test: In vivo inhibition of LSD1 in human A549 cells xenografted in athymic nude BALB/c ASlac-nu mouse at 20 mg/kg, sc everyday for 28 days by IHC analysis; type: functional, organism-based; details: time 28.0 day
A549 [7] = test: Cytotoxicity against human A549 cells assessed as cell viability at 100 uM incubated for 24 hrs by MTT assay relative to control; details: A549, 24 h, read-out: Activity
A549 [8] = details: Homo sapiens, dose 20.0 mg/kg, route sc, time 28.0 day
T47D [9] = test: Induction of apoptosis in human T47D cells assessed as early apoptotic cells incubated for 24 hrs by Annexin V-FITC/PI staining based flow cytometry (reference value: 0.274 %); type: functional
T47D [10] = test: Induction of apoptosis in human T47D cells assessed as necrotic cells incubated for 24 hrs by Annexin V-FITC/PI staining based flow cytometry (reference value: 0.243 %); type: functional
[11] = molecular target: T1, Amine oxidase [flavin-containing] A (Homo sapiens, UniProt P21397); test: Inhibition of MAO-A (unknown origin) incubated for 10 mins by fluorescence based assay
T1 sequence (P21397 whole entry): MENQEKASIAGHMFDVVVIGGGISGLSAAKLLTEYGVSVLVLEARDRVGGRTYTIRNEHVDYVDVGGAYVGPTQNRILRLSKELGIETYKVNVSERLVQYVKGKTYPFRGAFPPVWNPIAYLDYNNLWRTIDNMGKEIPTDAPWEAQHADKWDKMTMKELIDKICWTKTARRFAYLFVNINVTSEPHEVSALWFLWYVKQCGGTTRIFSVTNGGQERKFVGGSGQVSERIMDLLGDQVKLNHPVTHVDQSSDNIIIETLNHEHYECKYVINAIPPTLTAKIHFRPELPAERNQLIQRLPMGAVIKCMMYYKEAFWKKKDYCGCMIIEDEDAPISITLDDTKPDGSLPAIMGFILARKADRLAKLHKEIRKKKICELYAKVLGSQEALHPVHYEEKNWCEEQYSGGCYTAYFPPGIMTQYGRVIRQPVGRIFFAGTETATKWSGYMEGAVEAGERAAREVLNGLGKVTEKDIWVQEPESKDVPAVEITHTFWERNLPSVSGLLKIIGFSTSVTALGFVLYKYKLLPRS

[12] = Toxicity in athymic nude BALB/c ASlac-nu mouse xenografted with human A549 cells assessed as body weight loss at 20 mg/kg, sc everyday for 28 days; type: organism-based; details: in vivo, 672 h, time 28 day
A549 [13] = test: Induction of cell cycle arrest in human A549 cells assessed as cell accumulation at G2 phase at 50 uM incubated for 24 hrs by RNase/PI staining based flow cytometry (reference value: 9.81 %); type: functional
T47D [14] = test: Induction of apoptosis in human T47D cells assessed as late apoptotic cells incubated for 24 hrs by Annexin V-FITC/PI staining based flow cytometry (reference value: 0.898 %); type: functional
[15] = molecular target: T2, Phospholipid hydroperoxide glutathione peroxidase GPX4 (Homo sapiens) (UniProt P36969); test: Binding affinity to GPX4 (unknown origin) at 50 uM incubated for 12 hrs by SDS-PAGE analysis
T2 sequence (whole entry): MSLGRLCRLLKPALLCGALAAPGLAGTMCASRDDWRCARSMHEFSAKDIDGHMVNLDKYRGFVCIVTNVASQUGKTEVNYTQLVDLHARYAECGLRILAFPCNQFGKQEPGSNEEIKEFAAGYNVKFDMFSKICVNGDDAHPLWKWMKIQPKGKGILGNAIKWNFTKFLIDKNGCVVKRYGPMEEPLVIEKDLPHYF

T47D [16] = test: Induction of apoptosis in human T47D cells assessed as viable cells incubated for 24 hrs by Annexin V-FITC/PI staining based flow cytometry (reference value: 98.6 %); type: functional

Apoptosis regulator Bcl-2 (Homo sapiens), sequence (P10415 whole entry): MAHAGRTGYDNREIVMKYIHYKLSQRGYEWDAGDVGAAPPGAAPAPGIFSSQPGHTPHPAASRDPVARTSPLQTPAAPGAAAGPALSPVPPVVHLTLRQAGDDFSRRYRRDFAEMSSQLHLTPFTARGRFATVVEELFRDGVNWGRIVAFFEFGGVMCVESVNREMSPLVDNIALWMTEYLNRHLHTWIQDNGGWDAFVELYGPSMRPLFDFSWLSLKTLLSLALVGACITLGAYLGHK

| Molecule | Activity [1] | Activity [3] | inhibition (INH) [11] | Activity [15] | Activity (A549 [2]) [%] | viability at 100 µM (T47D [4]) [%] | Activity (A549 [5]) [%] | inhibition (A549 [6]) | viability at 100 µM (A549 [7]) [%] | inhibition (A549 [8]) | Activity (T47D [9]) [%] | Activity (T47D [10]) [%] | Activity [12] | Activity (A549 [13]) [%] | Activity (T47D [14]) [%] | Activity (T47D [16]) [%] |
| --- | --- | --- | --- | --- | --- | --- | --- | --- | --- | --- | --- | --- | --- | --- | --- | --- |
| CC(=O)N1CCC[C@H]1C(=O)N[C@@H](CCCNC(=N)N)C(=O)N[C@H]1CSCc2cccc(c2)C[S+](C)CC[C@@H](C(=O)N[C@@H](CCCCN)C(=O)N2CCC[C@H]2C(=O)N[C@@H](CCCNC(=N)N)C(=O)N[C@@H](CCCNC(=N)N)C(=O)N[C@@H](CCCNC(=N)N)C(=O)N[C@@H](CCCNC(=N)N)C(=O)N[C@@H](Cc2c[nH]c3ccccc23)C(N)=O)NC(=O)[C@H](C(C)C)NC(=O)[C@H](CC(C)C)NC(=O)[C@H](Cc2ccccc2)NC1=O (stereo not given in full) (Ac-PRCFLV[Met(S-mXyl)]KPRRRRW-NH2; thioether 3-7) | – | inactive | Not Active | inactive | 60.61 | ~7.4 | 27.23 | Active | ~19.9 | Active | 0 | 51.2 | Non-Toxic | 12 | 46.7 | 2.14 |
| Ac-PRSFLVRKPRRRRW-NH2 | – | – | – | – | 57.34 | – | 34.2 | Active | – | – | 1.49 | 0.088 | Non-Toxic | 7.96 | 2.19 | 96.3 |
| O=C(O)c1ccc(CN2CCC(CN[C@@H]3C[C@H]3c3ccccc3)CC2)cc1 [GSK2879552] | – | – | – | – | 53.15 | – | 36.7 | Active | – | – | 1.62 | 0.743 | Non-Toxic | 9.92 | 1.74 | 95.9 |

Second part, led by results:

| Activity [1] | Activity [3] | inhibition (INH) [11] | Activity [15] | Molecule | Activity (A549 [2]) [%] | viability at 100 µM (T47D [4]) [%] | Activity (A549 [5]) [%] | inhibition (A549 [6]) | viability at 100 µM (A549 [7]) [%] | inhibition (A549 [8]) | Activity (T47D [9]) [%] | Activity (T47D [10]) [%] | Activity [12] | Activity (A549 [13]) [%] | Activity (T47D [14]) [%] | Activity (T47D [16]) [%] |
| --- | --- | --- | --- | --- | --- | --- | --- | --- | --- | --- | --- | --- | --- | --- | --- | --- |
| Active | – | – | – | CC(=O)N1CCC[C@H]1C(=O)N[C@@H](CCCNC(=N)N)C(=O)N[C@H]1CSCc2cccc(c2)C[S+](C)CC[C@@H](C(=O)N[C@@H](CCCCNC(=O)CCCC[C@@H]2SC[C@@H]3NC(=O)N[C@@H]32)C(=O)N2CCC[C@H]2C(=O)N[C@@H](Cc2c[nH]c3ccccc23)C(N)=O)NC(=O)[C@H](C(C)C)NC(=O)[C@H](CC(C)C)NC(=O)[C@H](Cc2ccccc2)NC1=O (stereo not given in full) (Ac-PRCFLV[Met(S-mXyl)]K(Biotin)PW-NH2; thioether 3-7) | – | – | – | – | – | – | – | – | – | – | – | – |
| – | – | Active | – | C#CCN(C)CCCOc1ccc(Cl)cc1Cl [CLORGILINE] | – | – | – | – | – | – | – | – | – | – | – | – |
